The values that follow come from patent US20210205253A1, “Use Of Stearic Acid For Preventing Or Treating Pulmonary Fibrosis” (THE ASAN FOUNDATION, priority 2018, published 2021).

Molecules are shown by their SMILES.

Assay [1] has as its system human pulmonary fibroblasts (MRC-5). The experiment in a line: Cell viability (MTT) of human pulmonary fibroblasts. The note with it: stearic acid 40 uM/mL + TGF-β 5 ng/mL, 24 h, versus TGF-β alone. Type of assay: cell-based. As to the method: After epithelial cells and fibroblasts were aliquoted into 6-well plates at 2×10^4 cells/well and a stabilization time was imparted for 24 hours, and 15 hours after deficiency, cells were treated with stearic acid (40 uM/mL), TGF-β (5 ng/mL), and stearic acid (40 uM/mL)+TGF-β (5 ng/mL) in this order. After the cells were cultured in an incubator for 24 hours after the treatment, the next-step experiment was performed.
After a 24-hour cell stimulation by the method in Example 1-3 was completed, the medium of epithelial cells and fibroblasts was replaced with a general culture medium, 10 μl of an MTT solution (20 mg/ml) was further added, and then the outside of the plate was wrapped with aluminum foil and cells were cultured in an incubator for 2 hours. […] After 2 hours, cell activation was measured at an absorbance value of 595 nm using an ELISA reader.
For this purpose, after each culture (BEGM(Lonza) in the case of MRC-5, and BMEM (ATCC) in the case of BEAS-2B) of human pulmonary fibroblasts (MRC-5; ATCC® CCL171™) and human pulmonary epithelial cells (BEAS-2B; ATCC® CRL9609™) was treated with stearic acid (40 uM/mL), TGF-β (5 ng/mL; Sigma), or stearic acid (40 uM/mL)+TGF-β (5 ng/mL) by the method described in Example 1-3 for 24 hours, cell viability was measured by the method in Example 1-4. […]

The next assay relates to pulmonary fibroblasts. Description: Collagen 1 and α-SMA immunoblotting in pulmonary fibroblasts. Type of assay: cell-based, human. Conditions: stearic acid 40 uM/mL. As for the experimental part:
After epithelial cells and fibroblasts were aliquoted into 6-well plates at 2×10^4 cells/well and a stabilization time was imparted for 24 hours, and 15 hours after deficiency, cells were treated with stearic acid (40 uM/mL), TGF-β (5 ng/mL), and stearic acid (40 uM/mL)+TGF-β (5 ng/mL) in this order. After the cells were cultured in an incubator for 24 hours after the treatment, the next-step experiment was performed. After 24 hours of cell stimulation by the method of Example 1-3, the cells were washed twice with iced phosphate buffer saline (PBS), a protein lysate solution was put thereinto, the cells were scraped out and collected in a 1.5 ml EP tube, and then the cells were lysed in a grinder for 30 seconds. Next, centrifugation was performed at a speed of 14,000 rpm at 4° C. for 20 minutes, and the protein was quantified using the BCA analysis method. Thereafter, the protein sample was boiled at 95° C. for 10 minutes for the same amount of protein, and then the expression levels of collagen type 1 and α-SMA were measured by immunoblotting. After the expression level of the protein was confirmed, a significance test between samples was performed using a statistical program. […] The collagen 1/actin or α-SMA/actin indicated on the y-axis of FIGS. 4A and 4B means a value obtained by correcting the protein amount of collagen 1 or α-SMA with the amount of actin, which is an intracellular control protein. […] Further, referring to the test method of obtaining the results in FIG. 4, after pulmonary fibroblasts were treated with palmitic acid at various concentrations (10, 20, and 40 μM/mL), the levels of collagen 1 (collagen 1/actin; FIG. 6A) and α-SMA (α-SMA/actin; FIG. 6B), which are intracellular fibrosis markers, were measured, and shown as relative values to the control (CTL; medium only). […] 40 uM/mL stearic acid, 10 uM/mL palmitic acid, and 5 ng/mL TGF-β were used in the experiment, respectively. […] In addition, referring to the test method of obtaining the results in FIG. 7, the experiment was performed using oleic acid (OA) instead of palmitic acid, and the levels of collagen 1 (collagen 1/actin; FIG. 8A) and α-SMA (α-SMA/actin; FIG. 8B) were measured and shown as relative values to the control (CTL; medium only). 40 uM/mL stearic acid, 40 uM/mL oleic acid, and 5 ng/mL TGF-β were used in the experiment, respectively.
Background: In western blotting, separated proteins are transferred to a membrane and probed.

Assay [2] deals with Beas-2B human pulmonary epithelial cell line. Description: E-cadherin expression in epithelial cells. Type of assay: cell-based. The note with it: 40 μM stearic acid, 24 h. As to the method:
The present inventors examined the expression level of E-cadherin after treating Beas-2B, which is a human pulmonary epithelial cell line, with TGF-β1 and/or 40 μM stearic acid for 24 hours in order to examine the effects of stearic acid on epithelial cells. As a result, as illustrated in FIGS. 11A and 11B, it was confirmed that when Beas-2B was treated with 40 μM stearic acid, the expression of E-cadherin reduced by TGF-β1 was restored in Beas-2B cells. […] It was confirmed in FIG. 3B that when epithelial cells are treated with TGF-β1, the proliferation of epithelial cells was inhibited and the proliferation of epithelial cells was restored by stearic acid.

Where [3] appears, read: increase by oleic acid 40 uM/mL.
[4] abbreviates: increase by palmitic acid 10 uM/mL.

Turning to `CCCCCCCCCCCCCCCCCC(=O)O` [stearic acid], the “cell viability of pulmonary fibroblasts” value in assay [1] is given as “cell viability decreased”. For the same molecule, the “collagen 1/actin” value in the assay on pulmonary fibroblasts (increase by TGF-β 5 ng/mL), in the assay with pulmonary fibroblasts (setting [3]) and in the assay on pulmonary fibroblasts (setting [4]) was “significantly inhibited” in each case. In addition, the α-SMA/actin result in the assay on pulmonary fibroblasts (increase by TGF-β 5 ng/mL), in the assay on pulmonary fibroblasts (setting [3]) and in the assay with pulmonary fibroblasts (setting [4]) was “significantly inhibited” throughout. For the same molecule, the “expression of E-cadherin reduced by TGF-β1” value in assay [2] is “restored”.
